The subject of series [1] is HCT116 PTTG1−/− cells. In words: WST-1 cell proliferation assay. Type of series: cell-based. To be noted: for effect on the WT versus PTTG1−/− difference in response to doxorubicin: 3 μM inhibitor pre-incubation or siRNA, 0.63 μM doxorubicin; for sensitivity of PTTG1−/− cell growth versus WT (WST-1): PTTG1−/− vs WT HCT116 cells. How it is done:
(§1) FIG. 4 depicts that PTTG1 regulates cell response to Aurora Kinase inhibition, in accordance with an embodiment of the present invention. (A) PTTG1^−/− cell proliferation was attenuated in response to Aurora Kinase A siRNA (mean±S.D., n=3. P<0.05 vs WT). Cells were seeded into 96-well plates, cultured overnight, and then transfected with siRNAs (100 nM). After 72 hours, premixed WST-1 cell proliferation reagent (10 ul) was added to each well. Cells were incubated for a further four hours and shaken thoroughly for one minute before measurement. […] Cells were seeded into 96-well plates, cultured overnight, and then treated with drug as indicated for 48 hours. Viable cells were measured using Premixed WST-1 cell proliferation reagent. (C) Anchorage-dependent colony formation assay was performed as described herein. […] (mean±S.D., n=3. P<0.05 vs WT) (D) Western blot showing that over-expressed PTTG1 rescued PTTG1^−/− sensitivity to Aurora Kinase inhibitor III (12.5 uM) (mean±S.D., n=3. P>0.05 vs WT); PTTG1 knock-down enhanced WT cell sensitivity to Aurora Kinase inhibitor III (12.5 uM) (mean±S.D., n=3. P>0.05 vs PTTG1^−/−). PTTG1^−/−=PTTG1-null or KO cells.
(§2) Cell proliferation was evaluated using WST-1 cell proliferation reagent (obtained from Clontech Laboratories, Inc.; Mountain View, Calif.). Briefly, 90 μl cells were seeded into 96-well plates and cultured overnight, treated with drugs for 48 hours, and 10 μl premixed WST-1 cell proliferation reagent added. Cells were incubated for a further four hours, shaken and absorbance measured at 450 nm using a Victor 3 multiwell plate reader (obtained from PerkinElmer, Inc.; Waltham, Mass.). Cell viability rate was calculated for each well as A450 treated cells/A450 control cells×100% (A450: OD value at 450 nm).
(In general: Tetrazolium assays rely on reduction of a dye to a coloured formazan, in cell work by metabolically active cells.)

Another series concerns HCT116 WT cells. In words: WST-1 cell proliferation assay. Type of series: cell-based. The protocol: as §1, §2
Series [2] has as its system HCT116 PTTG1−/− cells. In words: Anchorage-dependent colony formation assay. The series is classed as cell-based. To be noted: PTTG1−/− vs WT HCT116 cells. How it is done:
Briefly, 20,000 cells were plated in a six-well culture dish, allowed to attach overnight and treated with depicted drug concentrations. Cells were cultured in standard culture medium containing indicated treatments for twelve days and medium re-freshened every three days. Colonies were stained with 0.5% crystal violet in methanol/acetic acid (3:1) and those composed of >50 cells were counted.

The subject of series [3] is Aurora Kinase A. To be noted: Gadea and Ruderman, 2005; cited from earlier work.
The test system of series [4] is HCT116 PTTG1−/− cells. In words: BrdU incorporation assay. Type of series: cell-based. How it is done:
The BrdU incorporation assay was carried out using a commercial kit. Briefly, culture cells in 96-well microplates in a final volume of 100 ul culture medium per well. After treatment, add 10 ul BrdU labeling solution per well (final concentration: 10 uM BrdU) and incubate for 2-18 h at 37° C. Carefully remove the culture medium and wash cells twice with 250 ul wash medium containing 10% serum per well. Cells fixed and treated with nucleases working solution for 30 min at 37° C. The incorporated BrdU is detected using anti-BrdU-POD, Fab fragments and peroxidase substrate ABTS. The absorbances of the samples are measured at 405 nm against the background control, using a Victor 3 multiwell plate reader.
(In general: Dividing cells build labelled thymidine or BrdU into new DNA.)

Series [5] concerns Aurora Kinase A. In words: Western blot of siRNA knock down. The series is classed as cell-based. To be noted: WT and PTTG1−/− cells. The protocol: Protein extracts were resolved by Nupage 4-12% Bis-Tris Gel (obtained from Invitrogen). Samples were electro-blotted onto PVDF membrane (obtained from Invitrogen), and membranes blocked and incubated with primary antibody. Donkey anti-rabbit- or anti-mouse (obtained from GE Healthcare; NJ) antibodies were conjugated to horseradish […] to reveal immunocomplexes by enhanced chemiluminescence (obtained from Thermo Scientific Pierce Protein Research Products).
Aurora Kinase A siRNA (AM51331, Sense: Described herein as SEQ. ID. NO.: 5; Antisense: Described herein as SEQ. ID. NO.: 6) and PTTG1 siRNA (16706, Sense: Described herein as SEQ. ID. NO.: 7; Antisense: Described herein as SEQ. ID. NO.: 8) were purchased from Ambion, Inc. (TX). Transfections were carried out with lipofectamine 2000 according to protocol.
(Immunoblotting shows a protein as a band on a membrane.)

The next series has as its target T1, ribosomal protein S10 (Homo sapiens, UniProt P46783).
T1 construct: purchased Invitrogen Protoarray nc-v3
Nature of the series: Protein microarray screening (Protoarray). To be noted: biotinylated PTTG1 probe. Type of series: binding. The protocol:
(§3) FIG. 1 depicts that PTTG1 interacts with Aurora Kinase A, in accordance with an embodiment of the present invention. (A) PTTG1 was biotin-labeled and incubated with the protein microarray. Attached biotinylated PTTG1 was probed with Streptavidin-Alexa Fluor 647 conjugate. […] (B) Aurora Kinase A antibody was used to co-immunoprecipitate PTTG1, and PTTG1 antibody used to co-immunoprecipitate Aurora Kinase A respectively.
(§4) The human Protoarray nc3.0 study was performed as described by the manufacturer (obtained from Invitrogen Corporation; Carlsbad, Calif.). PTTG1 protein was biotinylated using biotin-XX sulfosuccinimidyl ester, purified by gel filtration, and assessed by Western blot. Appropriate protein aliquots were used to probe a protein microarray (Protoarray nc-v3; obtained from Invitrogen) and attached biotinylate PTTG1 was probed with Streptavidin-Alexa Fluor 647 conjugate. Arrays were scanned by GenePix 4000B (obtained from Molecular Devices Corporation; Sunnyvale, Calif.), and images analyzed using ProtoArray Prospector (Invitrogen).

The target in series [6] is T2, Aurora Kinase A (Homo sapiens, UniProt O14965).
T2 sequence (O14965 1-403): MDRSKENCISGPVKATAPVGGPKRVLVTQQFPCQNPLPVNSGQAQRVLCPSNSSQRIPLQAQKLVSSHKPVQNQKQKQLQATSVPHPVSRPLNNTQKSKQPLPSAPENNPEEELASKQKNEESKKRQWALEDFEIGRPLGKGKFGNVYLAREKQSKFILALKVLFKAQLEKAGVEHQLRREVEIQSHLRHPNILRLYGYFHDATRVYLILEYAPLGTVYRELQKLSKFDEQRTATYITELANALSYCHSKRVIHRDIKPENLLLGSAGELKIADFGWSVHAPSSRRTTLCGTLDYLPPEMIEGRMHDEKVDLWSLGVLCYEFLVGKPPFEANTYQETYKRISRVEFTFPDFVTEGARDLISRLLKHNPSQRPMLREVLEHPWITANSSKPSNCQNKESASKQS
In words: In vitro kinase activity assay (histone H3 Ser10 phosphorylation). Further details: purchased Cell Signaling. To be noted: PTTG1 0.5, 1, 2 μg. The series is classed as biochemical. The source says: FIG. 3 depicts that PTTG1 attenuates Aurora Kinase A function, in accordance with an embodiment of the present invention. (A) Over-expressed PTTG1 caused abnormal spindle formation as evidenced by unevenly distributed PTTG1-GFP and Aurora Kinase A (white arrows). (B) Western blot showing that over-expressed PTTG1 suppressed Aurora Kinase A T288 auto-phosphorylation and histone H3 Ser10 phosphorylation in HCT116 cells compared to controls. (C) Over-expressed PTTG1 repressed histone H3 Seri 0 phosphorylation as shown by immunofluorescence (white arrows). Scale bar=5 μm. (D) Degradation of mitotic proteins. HCT116 cells were synchronized with 400 ng/ml nocodazole for twelve hours and mitotic cells collected by shake-off, washed and cultured in fresh medium at 37° C. to allow progression of G2/M, and cells harvested at the indicated time points. […] (E) In vitro kinase assay. Aurora Kinase A, histone H3 and increasing PTTG1 or GST-His levels (0.5, 1, 2 μg) were brought to a 30 μl volume reaction system as described herein. After incubations at 37° C. for 20 minutes, reactions were halted and analyzed by Western blotting using histone H3 ser10 antibody. […]
Assays were performed using a modified Aurora kinase A assay kit obtained from Cell Signaling. […] Proteins were separated by standard SDS-PAGE and analyzed by Western blotting.

For series [7], the target named is T2, Aurora Kinase A. In words: Protein microarray screening (Protoarray). Type of series: binding. To be noted: biotinylated PTTG1 probe. Further details: purchased Invitrogen Protoarray nc-v3. The protocol: as §3, §4

For the molecule `O=C(Nc1cccc(Nc2nccc(Nc3cccc(C(F)(F)F)c3)n2)c1)C1CC1` [Aurora Kinase Inhibitor III, Cyclopropanecarboxylic acid-(3-(4-(3-trifluoromethyl-phenylamino)-pyrimidin-2-ylamino)-phenyl)-amide], in the series on HCT116 PTTG1−/− cells [1], the “effect on the WT versus PTTG1−/− difference in response to doxorubicin” value was “abolished the different response” and the “sensitivity of PTTG1−/− cell growth versus WT (WST-1)” value is reported as “more sensitive”. Also, the viability at 12.5 µM in the series on HCT116 PTTG1−/− cells [1] (Homo sapiens, HCT-116, PTTG1-null HCT116 cells, 12.5 uM for 48 h, read-out: cells remaining viable) amounted to 56%. Moreover, the viability at 12.5 µM in the series on HCT116 WT cells (Homo sapiens, HCT-116, WT cells, 12.5 uM for 48 h, read-out: cells remaining viable) turned out to be 73%. In the series with HCT116 PTTG1−/− cells [2], the “sensitivity of PTTG1−/− cells versus WT (colony formation)” value was “more sensitive”.

As to `COc1cc2c(Nc3ccc(NC(=O)c4ccccc4)cc3)ncnc2cc1OCCCN1CCOCC1` [ZM 447439], in the series with Aurora Kinase A [3], the “effect on chromosome condensation and spindle” value is listed as “retards progression of chromosome condensation, leading to a disorganized spindle”. `S=C=NCCc1ccccc1` [PEITC, phenethyl isothiocyanate]: in the series with HCT116 PTTG1−/− cells [4], the “sensitivity of PTTG1−/− cells to ROS-generating agents” value is “enhanced sensitivity”. Take “PTTG1 siRNA: siRNA 16706, SEQ. ID. NO.: 7 and 8, purchased from Ambion (chain 1 GUCUGUAAAGACCAAGGGA; chain 2 UCCCUUGGUCUUUACAGAC; listed as RNA, chemistry not given here; listed as Homo sapiens)”: the “effect of PTTG1 knock down on sensitivity to Aurora Kinase inhibitor III” value in the series on HCT116 WT cells (WT HCT116 cells, inhibitor III 12.5 uM) is reported as “increased HCT116 cell sensitivity”.

Turning to `Nc1nc(Nc2ccc(S(N)(=O)=O)cc2)nn1C(=O)c1c(F)cccc1F` [Aurora Kinase/CDK inhibitor, 4-(5-Amino-1-(2,6-difluorobenzoyl)-1H-[1,2,4]triazol-3-ylamino)-benzenesulfonamide], the “sensitivity of PTTG1−/− cell growth versus WT (WST-1)” value with HCT116 PTTG1−/− cells [1] is recorded as “more susceptible than WT cells”.

As to `OO` [H2O2], the “sensitivity of PTTG1−/− cells to ROS-generating agents” value with HCT116 PTTG1−/− cells [4] is “enhanced sensitivity”. For “Aurora Kinase A siRNA: siRNA AM51331, SEQ. ID. NO.: 5 and 6, purchased from Ambion (chain 1 GGCAACCAGUGUACCUCAU; chain 2 AUGAGGUACACUGGUUGCC; chemistry not given here; listed as Homo sapiens)”, in the series with HCT116 PTTG1−/− cells [1], the “effect on the WT versus PTTG1−/− difference in response to doxorubicin” value is “abolished the differences” and the “sensitivity of PTTG1−/− cell growth versus WT (WST-1)” value is given as “attenuated”. Further, the “Aurora Kinase A expression” value with Aurora Kinase A [5] is “efficiently knocked down Aurora Kinase A expression”.

`CC(=O)N[C@@H](CS)C(=O)O` [N-acetyl cysteine (NAC), N-acetyl cysteine]: the “effect of ROS quencher on PTTG1−/− cell sensitivity to ROS-generating agents” value in the series on HCT116 PTTG1−/− cells [4] is “rescue PTTG1−/− cells sensitivity”. For the molecule `COc1cc2ncnc(Nc3ccc(NC(=O)c4ccccc4)cc3)c2cc1OC` [Aurora Kinase Inhibitor II, 4-(4′-Benzamidoanilino)-6,7-dimethoxyquinazoline], the “sensitivity of PTTG1−/− cell growth versus WT (WST-1)” value with HCT116 PTTG1−/− cells [1] is reported as “more susceptible than WT cells”.

B1: PTTG1: pituitary tumor transforming gene protein (securin); His-PTTG1 expressed in insect cells, biotinylated for the array (protein, listed as Homo sapiens)
chain: MATLIYVDKENGEPGTRVVAKDGLKLGSGPSIKALDGRSQVSTPRFGKTFDAPPALPKATRKALGTVNRATEKSVKTKGPLKQKQPSFSAKKMTEKTVKAKSSVPASDDAYPEIEKFFPFNPLDFESFDLPEEHQIAHLPLSGVPLMILDEERELEKLFQLGPPSPVKMPSPPWESNLLQSPSSILSTLDVELPPVCCDIDI
modifications: His tag, biotinylated
notes: pituitary tumor transforming gene protein (securin); His-PTTG1 expressed in insect cells, biotinylated for the array
With B1, the Z-score of interaction with ribosomal protein S10 is recorded as 3.34; with Aurora Kinase A [7] it was 4.90. Moreover, the “Aurora Kinase A phosphorylation of histone H3” value in the series with Aurora Kinase A [6] is “dose-dependently inhibits”.

The values above are taken from patent US8216782B2, “PTTG1 as a biomarker for cancer treatment” (Cedars-Sinai Medical Center, priority 2008, dated 2012).
